Experimental data as given in US11371020B2, “Uses of epithelial-to-mesenchymal inhibitors in generating pacemaker cells” (Emory University, priority 2016, dated 2022).
“Also recorded” adds a separate entry of the source.

Key:
[1] = system: TBX18-induced pacemaker cells (TBX18-iPCs); assay: Electrode-to-electrode impedance measurement of migration of TBX18-iPCs; type: cell-based, rat; conditions: A83-01 0.5 microM; NRVM transduced with adenoviral human TBX18
Experimental: TBX18-iPCs were created by transducing freshly isolated neonatal rat ventricular myocytes (NRVM) with an adenoviral vector expressing human TBX18. TBX18-iPC were cultured with an inhibitor of EMT, A83-01 (0.5 microM).
(§1) Experiments were performed to test whether i) TBX18-induced pacemaker cells (TBX18-iPCs) migrate, and ii) inhibition of EMT in TBX18-iPCs may stop the migration, thereby enhancing its pacing function. (See FIGS. 1-8). TBX18-iPCs were created by transducing freshly-isolated neonatal rat ventricular myocytes (NRVM) with an adenoviral vector expressing human TBX18. TBX18-iPC were cultured with an inhibitor of EMT, A83-01. […] TBX18-iPCs beat in synchrony upon EMT inhibition, and their automaticity persists over long-term.

[2] = system: TBX18-induced pacemaker cells (TBX18-iPCs); assay: Beating, field potential and Ca2+ transient recording of TBX18-iPCs; type: cell-based, rat
Experimental: as §1

TBX18-iPCs = assay: Cx43 localisation, gap junctional coupling and Hcn4 expression in TBX18-iPCs; type: cell-based, rat
Experimental: as §1
TBX18 mediates both automaticity and EMT in iPCs.

ALK-5 = biological target: T1, ALK-5 (Homo sapiens, UniProt P36897); conditions: cited from earlier work
T1 sequence (P36897 34-503): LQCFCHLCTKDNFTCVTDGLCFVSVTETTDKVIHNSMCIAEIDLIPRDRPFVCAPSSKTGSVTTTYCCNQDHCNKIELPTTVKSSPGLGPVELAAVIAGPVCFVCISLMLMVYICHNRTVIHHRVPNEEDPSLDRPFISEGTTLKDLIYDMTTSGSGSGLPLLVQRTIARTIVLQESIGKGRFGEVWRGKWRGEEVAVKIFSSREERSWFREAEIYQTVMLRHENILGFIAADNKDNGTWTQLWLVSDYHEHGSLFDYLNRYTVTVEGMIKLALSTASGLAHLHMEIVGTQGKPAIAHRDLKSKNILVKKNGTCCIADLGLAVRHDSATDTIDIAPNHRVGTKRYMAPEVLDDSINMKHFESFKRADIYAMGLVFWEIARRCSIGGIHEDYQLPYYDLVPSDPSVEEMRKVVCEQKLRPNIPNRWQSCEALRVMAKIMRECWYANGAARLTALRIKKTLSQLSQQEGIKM

EMT genes = assay: EMT-related gene expression in TBX18-induced pacemaker cells; type: cell-based, rat; conditions: TBX18-iPCs cultured with A83-01
Experimental: as §1

For `Cc1cccc(-c2nn(C(=S)Nc3ccccc3)cc2-c2ccnc3ccccc23)n1` [A83-01, 3-(6-methyl-2-pyridinyl)-N-phenyl-4-(4-quinolinyl)-1H-pyrazole-1-carbothioamide], the “migration of TBX18-iPCs” value [1] was “remain stationary; also recorded: migratory behavior is deleted”, the “persistence of automaticity of iPMs” value ([2]; in A83-01 versus without it) was “persists much longer” and the synchrony of pacing ([2]; in the presence of A83-01) was “synchronous and rhythmic pacing; also recorded: pace in unity”. The “beating rate of TBX18-iPCs” value ([2]; upon EMT inhibition) was “beating rate increases”, the “contraction and relaxation speed of TBX18-iPCs” value ([2]; upon EMT inhibition) was “contract and relax faster” and the “gap junctional coupling of EMT-inhibited TBX18-iPCs” value (TBX18-iPCs) was “long-term gap junctional coupling”. The “Hcn4 expression in TBX18-iPCs” value (TBX18-iPCs; upon EMT inhibition) was “enhances Hcn4 expression”, the “localisation of nuclear-bound Cx43 proteins in TBX18-iPCs” value (TBX18-iPCs; upon EMT inhibition) was “translocated to the sarcolemma” and the “Smad signaling and epithelial-to-mesenchymal transition by transforming growth factor-beta” value (ALK-5) was “inhibits”. For the same molecule, the “EMT gene expression in the iPCs” value (EMT genes) was “down-regulates EMT genes”.
